Common to all, as to assay type: cell membranes
For assay [1], the target named is Sodium-dependent serotonin transporter (Homo sapiens, UniProt P31645). Briefly: Radioligand Binding Assay: Compounds were dissolved in 100% DMSO at a concentration 100 times the desired highest assay concentration, serially diluted 1:3 in 100% DMSO, and 0.4 ul/well of each solution was dispensed to a Nunc polypropylene, round bottom, 384-well plate. […] 20 ul/well of a 2x membrane preparation (15 ug/ml in 50 mM Tris-Cl, pH 7.5, 120 mM NaCl, 5 mM KCl) and 20 ul/well of a 2x radioligand solution (520 pM [125I]RTI-55 in 50 mM Tris-Cl, pH 7.5, 120 mM NaCl, 5 mM KCl) were added to each well and the reaction incubated for 1 hour at room temperature. The contents of the assay plate were then transferred to a Millipore MultiscreenHTS GF/B filter plate which was pretreated with 0.5% PEI for at least one hour. The plate was vacuum filtered and washed with 7 washes of 100 uA/well 50 mM Tris-Cl, pH 7.5, 120 mM NaCl, 5 mM KCl chilled to 4 C.
Chain of Sodium-dependent serotonin transporter (P31645 whole entry): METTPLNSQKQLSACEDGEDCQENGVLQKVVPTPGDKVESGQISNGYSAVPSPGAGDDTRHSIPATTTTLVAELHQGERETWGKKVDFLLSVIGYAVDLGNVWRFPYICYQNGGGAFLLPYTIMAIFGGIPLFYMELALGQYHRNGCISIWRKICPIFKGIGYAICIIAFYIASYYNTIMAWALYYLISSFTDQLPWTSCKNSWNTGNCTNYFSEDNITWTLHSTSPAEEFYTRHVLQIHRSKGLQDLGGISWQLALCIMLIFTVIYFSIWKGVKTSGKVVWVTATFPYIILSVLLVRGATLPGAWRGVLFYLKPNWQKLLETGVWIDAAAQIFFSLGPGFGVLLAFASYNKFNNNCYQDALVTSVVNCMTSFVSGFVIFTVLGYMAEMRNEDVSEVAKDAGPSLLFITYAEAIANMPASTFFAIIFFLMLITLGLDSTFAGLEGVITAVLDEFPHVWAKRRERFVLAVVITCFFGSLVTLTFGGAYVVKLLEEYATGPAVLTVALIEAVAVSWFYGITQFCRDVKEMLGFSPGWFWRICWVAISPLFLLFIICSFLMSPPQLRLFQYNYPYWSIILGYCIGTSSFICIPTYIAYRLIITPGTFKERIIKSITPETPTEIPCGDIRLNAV

Assay [2] has as its target Sodium-dependent noradrenaline transporter (Homo sapiens, UniProt P23975). Description: Radioligand Binding Assay: Compounds were dissolved in 100% DMSO at a concentration 100 times the desired highest assay concentration, serially diluted 1:3 in 100% DMSO, and 1.0 ul/well of each solution was dispensed to a Nunc polypropylene, round bottom, 384-well plate. […] 50 ul/well of a 2x membrane preparation (0.4 mg/ml in 50 mM Tris-Cl, pH 7.5, 120 mM NaCl, 5 mM KCl) and 50 ul/well of a 2x radioligand solution (4 nM [3H]nisoxetine in 50 mM Tris-Cl, pH 7.5, 120 mM NaCl, 5 mM KCl) were added to the well and the reaction incubated for 1 hour at room temperature. The contents of the assay plate were then transferred to a Millipore MultiscreenHTS GF/B filter plate which was pretreated with 0.5% PEI for at least one hour. The plate was vacuum filtered and washed with 7 washes of 100 ul/well 50 mM Tris-Cl, pH 7.5, 120 mM NaCl, 5 mM KCl chilled to 4 C.

The target in assay [3] is Sodium-dependent dopamine transporter (Homo sapiens, UniProt Q01959). Briefly: Radioligand Binding Assay: Compounds were dissolved in 100% DMSO at a concentration 100 times the desired highest assay concentration, serially diluted 1:3 in 100% DMSO, and 0.4 ul/well of each solution was dispensed to a Nunc polypropylene, round bottom, 384-well plate. […] 20 ul/well of a 2x membrane preparation (12.5 ug/ml in 30 mM sodium phosphate buffer, pH 7.9 at 4 C.) and 20 ul/well of a 2x radioligand solution (250 pM [125I]RTI-55 in 30 mM sodium phosphate buffer, pH 7.9 at 4 C.) were added to the well and the reaction incubated for 1 hour at room temperature. The contents of the assay plate were then transferred to a Millipore MultiscreenHTS GF/B filter plate which was pretreated with 0.5% PEI for at least one hour. The plate was vacuum-filtered and washed with 7 washes of 100 ul/well 50 mM Tris-Cl, pH 7.5, 120 mM NaCl, 5 mM KCl chilled to 4 C.
Chain of Sodium-dependent dopamine transporter (Q01959 whole entry): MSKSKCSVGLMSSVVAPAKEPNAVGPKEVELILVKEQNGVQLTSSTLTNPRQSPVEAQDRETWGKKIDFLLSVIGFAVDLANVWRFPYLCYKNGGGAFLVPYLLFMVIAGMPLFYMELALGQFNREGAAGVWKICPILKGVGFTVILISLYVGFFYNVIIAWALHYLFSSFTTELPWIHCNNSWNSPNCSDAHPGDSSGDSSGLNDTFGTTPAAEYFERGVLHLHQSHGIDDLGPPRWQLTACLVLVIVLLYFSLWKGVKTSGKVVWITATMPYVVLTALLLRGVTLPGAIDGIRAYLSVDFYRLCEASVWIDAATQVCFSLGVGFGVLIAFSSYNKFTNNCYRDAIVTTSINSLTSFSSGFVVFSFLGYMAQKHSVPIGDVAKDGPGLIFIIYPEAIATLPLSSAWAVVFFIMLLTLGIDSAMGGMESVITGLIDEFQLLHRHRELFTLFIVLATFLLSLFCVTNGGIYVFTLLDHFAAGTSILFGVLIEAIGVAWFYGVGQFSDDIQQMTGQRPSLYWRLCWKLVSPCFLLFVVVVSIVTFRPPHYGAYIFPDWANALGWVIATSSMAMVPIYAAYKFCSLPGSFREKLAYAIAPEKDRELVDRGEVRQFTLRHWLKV

Chain of Sodium-dependent noradrenaline transporter (P23975 whole entry): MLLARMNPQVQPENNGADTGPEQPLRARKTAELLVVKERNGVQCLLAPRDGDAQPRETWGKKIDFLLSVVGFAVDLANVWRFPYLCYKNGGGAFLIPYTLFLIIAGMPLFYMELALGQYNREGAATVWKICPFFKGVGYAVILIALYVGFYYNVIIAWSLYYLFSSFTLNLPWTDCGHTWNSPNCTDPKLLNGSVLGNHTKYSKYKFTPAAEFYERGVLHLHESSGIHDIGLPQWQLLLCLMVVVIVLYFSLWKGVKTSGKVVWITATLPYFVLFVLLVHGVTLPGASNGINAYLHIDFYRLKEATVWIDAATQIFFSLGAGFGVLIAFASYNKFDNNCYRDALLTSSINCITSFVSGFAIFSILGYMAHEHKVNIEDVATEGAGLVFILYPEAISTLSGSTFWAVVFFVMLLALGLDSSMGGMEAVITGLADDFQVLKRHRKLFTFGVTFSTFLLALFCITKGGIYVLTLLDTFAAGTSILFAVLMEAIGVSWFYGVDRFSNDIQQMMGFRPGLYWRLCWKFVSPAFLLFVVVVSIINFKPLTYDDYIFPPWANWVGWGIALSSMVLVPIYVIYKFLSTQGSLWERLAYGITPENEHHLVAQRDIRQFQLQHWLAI

The term IC50 denotes the point on the concentration scale where inhibition reaches its midpoint. As for `O=c1[nH]c2ccc(-c3ccc4c(c3)CN3CCC4(c4ccc(Cl)c(Cl)c4)CC3)cc2o1`, the results for the IC50 in assay [1], in assay [2] and in assay [3] were 9.3 nM, 451 nM and 25.5 nM, respectively.
